Measured values from patent US9115134B2, “6-triazolopyridazine sulfanyl benzothiazole derivatives as MET inhibitors” (SANOFI, priority 2007, dated 2015).

Columns and labels:
[1] = molecular target: T1, MET (Homo sapiens, UniProt P08581); assay: Test B: Inhibition of the autophosphorylation of MET; ELISA technique (pppY1230,1234,1235) in MKN45 cells; format: cell-based; parameters: Seed MKN45 cells into 96-well plates (Cell coat BD polylysine) at 20 000 cells/well; endogenous in cells; host or cells: MKN45 cells; settings: 1 h treatment, PhosphoMET ELISA
Procedure, shortened: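 Adhered cells treated 1 h with six compound concentrations in duplicate, final 10 000 to 30 nM, against DMSO controls. Cells then lysed at 4° C for 30 min in Triton/SDS/deoxycholate buffer with phosphatase inhibitors. Phospho-MET measured by sandwich ELISA with anti-phospho MET antibody and HRP detection, absorbance at 450 nm.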
Target sequence in this assay (P08581 25-1390): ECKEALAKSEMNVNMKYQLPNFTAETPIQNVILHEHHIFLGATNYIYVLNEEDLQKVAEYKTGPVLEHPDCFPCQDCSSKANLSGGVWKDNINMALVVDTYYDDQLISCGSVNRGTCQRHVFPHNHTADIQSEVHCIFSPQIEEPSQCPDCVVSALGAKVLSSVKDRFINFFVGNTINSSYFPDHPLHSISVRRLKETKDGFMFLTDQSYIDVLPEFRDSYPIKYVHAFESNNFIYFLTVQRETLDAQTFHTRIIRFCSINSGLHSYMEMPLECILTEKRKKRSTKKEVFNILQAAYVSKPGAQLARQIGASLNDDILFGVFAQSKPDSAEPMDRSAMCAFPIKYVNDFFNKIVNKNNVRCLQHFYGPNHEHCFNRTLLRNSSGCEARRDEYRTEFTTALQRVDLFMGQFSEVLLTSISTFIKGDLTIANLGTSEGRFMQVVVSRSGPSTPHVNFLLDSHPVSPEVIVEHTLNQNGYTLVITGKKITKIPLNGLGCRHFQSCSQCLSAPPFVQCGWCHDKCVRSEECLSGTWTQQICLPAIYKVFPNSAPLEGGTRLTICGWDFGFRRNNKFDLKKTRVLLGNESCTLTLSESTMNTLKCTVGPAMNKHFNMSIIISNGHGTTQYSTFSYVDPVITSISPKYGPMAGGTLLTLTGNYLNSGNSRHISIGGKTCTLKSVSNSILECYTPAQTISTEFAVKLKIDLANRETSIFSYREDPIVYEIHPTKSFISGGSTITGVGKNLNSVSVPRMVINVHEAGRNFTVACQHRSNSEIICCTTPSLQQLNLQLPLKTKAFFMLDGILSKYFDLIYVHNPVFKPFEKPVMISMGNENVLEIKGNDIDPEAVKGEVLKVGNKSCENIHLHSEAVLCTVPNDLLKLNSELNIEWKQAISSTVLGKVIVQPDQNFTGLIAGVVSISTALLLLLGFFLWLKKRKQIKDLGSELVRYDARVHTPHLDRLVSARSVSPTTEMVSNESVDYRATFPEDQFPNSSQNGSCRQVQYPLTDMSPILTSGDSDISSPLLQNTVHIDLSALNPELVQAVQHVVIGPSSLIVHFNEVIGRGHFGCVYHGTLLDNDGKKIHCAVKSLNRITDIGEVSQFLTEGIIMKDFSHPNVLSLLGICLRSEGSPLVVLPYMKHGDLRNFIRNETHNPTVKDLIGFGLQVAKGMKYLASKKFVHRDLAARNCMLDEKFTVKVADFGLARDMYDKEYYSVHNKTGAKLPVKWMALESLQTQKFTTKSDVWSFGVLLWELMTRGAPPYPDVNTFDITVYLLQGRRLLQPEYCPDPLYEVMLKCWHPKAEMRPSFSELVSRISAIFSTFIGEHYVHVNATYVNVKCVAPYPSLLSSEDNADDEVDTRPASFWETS

[2] = molecular target: T1, MET; assay: Test A: HTRF MET assay in 96-well format; format: biochemical; parameters: The His-Tev-MET (956-1390) recombinant DNA in pFastBac (Invitrogen) is transfected into insect cells; His tag (N, cleaved yes); TEV cleavage site (N); made in house; host or cells: SF21 insect cells (baculovirus, pFastBac); settings: MET 5 nM, 10 μM ATP
Procedure, shortened: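 Purified human MET cytoplasmic domain (956-1390, His tag cleaved), 5 nM, with compound (0.17 nM–10 μM, 3% DMSO) in MOPS pH 7.4; 1 μg/ml poly-(GAT), 10 μM ATP, 5 mM MgCl2, 10 min at ambient temperature. HTRF read-out (streptavidin-XL/anti-pTyr Eu cryptate, 2 h); % inhibition from 665/620 ratios.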
Target sequence in this assay (P08581 956-1390): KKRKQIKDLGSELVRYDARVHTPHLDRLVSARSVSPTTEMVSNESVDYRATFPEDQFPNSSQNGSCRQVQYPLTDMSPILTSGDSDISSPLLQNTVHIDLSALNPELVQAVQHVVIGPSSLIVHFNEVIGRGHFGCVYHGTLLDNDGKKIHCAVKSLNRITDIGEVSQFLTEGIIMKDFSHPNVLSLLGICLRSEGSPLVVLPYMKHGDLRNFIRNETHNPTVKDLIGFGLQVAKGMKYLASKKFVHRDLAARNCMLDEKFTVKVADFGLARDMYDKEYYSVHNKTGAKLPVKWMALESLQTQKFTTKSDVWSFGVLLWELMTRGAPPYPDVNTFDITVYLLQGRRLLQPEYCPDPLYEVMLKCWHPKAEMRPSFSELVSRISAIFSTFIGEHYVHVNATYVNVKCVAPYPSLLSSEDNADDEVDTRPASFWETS

[3] = tested on: HCT116 cells, MKN45 cells; assay: Test C: Measurement of cell proliferation by 14C-thymidine pulse; format: cell-based; settings: 14C-thymidine incorporation, 96 h of treatment; cell line not given
Procedure, shortened: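 HCT116 (2500/well, DMEM) and MKN45 (7500/well, RPMI), both with 10% FCS, treated after 4 h with 10 concentrations from 10 000 to 0.3 nM (3-fold, duplicate). ¹⁴C-thymidine (0.1 μCi/well) added at 72 h; incorporation read after 24 h pulse, 96 h total treatment.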

IC50 [1] | IC50 [2] | IC50 [3] | melting point | SMILES
< 0.1 µM | < 0.1 µM | < 1 µM |  | CC(=O)Nc1nc2ccc(Sc3nnc4ccc(-c5cccc(F)c5)nn34)cc2s1 [Example 65, N-(6-{[6-(3-Fluorophenyl)[1,2,4]triazolo[4,3-b]pyridazin-3-yl]sulphanyl}-1,3-benzothiazol-2-yl)acetamide]
0.1 to 0.5 µM | < 0.1 µM | < 1 µM |  | CC(C)C(=O)Nc1nc2ccc(Sc3nnc4ccc(-c5ccc(F)cc5)nn34)cc2s1 [Example 66, N-(6-{[6-(4-Fluorophenyl)[1,2,4]triazolo[4,3-b]pyridazin-3-yl]sulphanyl}-1,3-benzothiazol-2-yl)-2-methylpropanamide]
< 0.1 µM | < 0.1 µM | < 1 µM |  | O=C(Nc1nc2ccc(Sc3nnc4ccc(-c5cccc(F)c5)nn34)cc2s1)C1CC1 [Example 67, N-(6-{[6-(3-Fluorophenyl)[1,2,4]triazolo[4,3-b]pyridazin-3-yl]sulphanyl}-1,3-benzothiazol-2-yl)cyclopropanecarboxamide]
> 0.5 µM | < 0.5 µM | < 10 µM | 220 °C | CCC(C)CNc1nc2ccc(Sc3nnc4n3N=C(c3ccc(F)cc3)CC4)cc2s1 (stereo not shown) [Example 68, 6-{[6-(4-Fluorophenyl)-7,8-dihydro[1,2,4]triazolo[4,3-b]pyridazin-3-yl]sulphanyl}-N-(2-methylbutyl)-1,3-benzothiazol-2-amine]
